According to the NIST ThermoML archive (doi:10.1016/j.fluid.2009.09.024):
“And” between values parts separate entries of the source, which are not always exact repeats. Equal values may be shown once.

What was measured:
[1] = for vapor or sublimation pressure: Closed cell (Static) method; for mass density: Vibrating tube method
[2] = xn = mol fraction of the nth substance listed; settings: Liquid, Vibrating tube method

Cc1ccccc1C [1,2-dimethylbenzene]
[1]
Settings | mass density, 333.15 K | mass density, 353.15 K | vapor or sublimation pressure, 333.15 K | vapor or sublimation pressure, 353.15 K
Gas | – | 0.4397 kg/m3 and 0.4571 kg/m3 | – | –
Liquid | 845.8 kg/m3 and 845.839 kg/m3 | 828.5 kg/m3 and 828.528 kg/m3 | 5.32 kPa and 5.44 kPa | 12.8 kPa and 12.66 kPa

Cc1ccccc1C [1,2-dimethylbenzene] + Cc1ccccc1
mass density [kg/m3], [2]
Settings | 333.15 K | 353.15 K
x2 = 0 | 845.8 | 828.5
x2 = 0.102 | – | 826.692
x2 = 0.108 | 844.136 | –
x2 = 0.202 | – | 824.931
x2 = 0.203 | 842.673 | –
x2 = 0.299 | – | 823.222
x2 = 0.301 | 841.173 | –
x2 = 0.4 | 839.661 | 821.449
x2 = 0.499 | 838.134 | 819.705
x2 = 0.6 | – | 817.918
x2 = 0.601 | 836.576 | –
x2 = 0.699 | 835.072 | 816.176
x2 = 0.799 | – | 814.417
x2 = 0.8 | 833.533 | –
x2 = 0.899 | – | 812.661
x2 = 0.9 | 831.999 | –

Cc1ccccc1C [1,2-dimethylbenzene] + O=S1(=O)CCCC1
[2], x1 = 1
Settings | mass density [kg/m3]
333.15 K | 845.839
353.15 K | 828.528

Cc1cccc(C)c1 [1,3-dimethylbenzene]
[1]
Settings | mass density, 333.15 K [kg/m3] | mass density, 353.15 K [kg/m3] | vapor or sublimation pressure, 333.15 K [kPa] | vapor or sublimation pressure, 353.15 K [kPa]
Gas | 0.252 | 0.5448 | – | –
Liquid | 829.305 | 811.602 | 6.59 | 15.09

Cc1cccc(C)c1 [1,3-dimethylbenzene] + O=S1(=O)CCCC1
[2], x1 = 1
Settings | mass density [kg/m3]
333.15 K | 829.305
353.15 K | 811.602

c1ccccc1 [benzene]
[1]
Settings | mass density, 333.15 K [kg/m3] | mass density, 353.15 K [kg/m3] | vapor or sublimation pressure, 333.15 K [kPa] | vapor or sublimation pressure, 353.15 K [kPa]
Gas | 1.5172 | 2.69 | – | –
Liquid | 835.696 | 814.086 | 52.45 | 100

c1ccccc1 [benzene] + CCCCCCCCC
[2], x1 = 1
Settings | mass density [kg/m3]
333.15 K | 835.696
353.15 K | 814.086

CCCCCCCCC [nonane]
[1]
Settings | mass density, 333.15 K [kg/m3] | mass density, 353.15 K [kg/m3] | vapor or sublimation pressure, 333.15 K [kPa] | vapor or sublimation pressure, 353.15 K [kPa]
Gas | 0.1868 | 0.4513 | – | –
Liquid | 685.961 | 669.919 | 3.97 | 10.28

CCCCCCCCC [nonane] + c1ccccc1
mass density [kg/m3], [2]
Settings | 333.15 K | 353.15 K
x2 = 0 | 685.961 | 669.919
x2 = 0.1 | 700.985 | –
x2 = 0.101 | – | 684.481
x2 = 0.199 | – | 698.728
x2 = 0.2 | 715.957 | –
x2 = 0.248 | – | 705.756
x2 = 0.3 | – | 713.217
x2 = 0.302 | 731.175 | –
x2 = 0.399 | – | 727.581
x2 = 0.404 | 746.508 | –
x2 = 0.499 | – | 741.992
x2 = 0.502 | 761.194 | –
x2 = 0.599 | 775.788 | 756.286
x2 = 0.699 | 790.766 | –
x2 = 0.701 | – | 771.023
x2 = 0.799 | 805.683 | 785.21
x2 = 0.899 | 820.654 | 799.582
x2 = 0.94 | 826.713 | –
x2 = 0.969 | 831.191 | –

O=S1(=O)CCCC1 [sulfolane]
[1], Liquid
Settings | mass density [kg/m3] | vapor or sublimation pressure [kPa]
333.15 K | 1231.12 | 0.01
353.15 K | 1214.39 | 0.04

O=S1(=O)CCCC1 [sulfolane] + Cc1cccc(C)c1
mass density [kg/m3], [2]
Settings | 333.15 K | 353.15 K
x2 = 0 | 1231.12 | 1214.39
x2 = 0.01 | 1227.11 | –
x2 = 0.015 | 1225.1 | 1208.34
x2 = 0.02 | 1223.09 | 1206.33
x2 = 0.03 | 1219.07 | 1202.3
x2 = 0.05 | – | 1194.25
x2 = 0.1 | 1190.81 | 1173.97
x2 = 0.199 | 1150.86 | 1133.93
x2 = 0.299 | 1110.94 | 1093.91
x2 = 0.399 | 1070.45 | 1053.33
x2 = 0.501 | 1029.46 | 1012.24
x2 = 0.6 | 989.939 | 972.621
x2 = 0.7 | 949.485 | 932.07
x2 = 0.799 | 909.766 | 892.257
x2 = 0.9 | 869.443 | 851.836

O=S1(=O)CCCC1 [sulfolane] + Cc1ccccc1C
mass density [kg/m3], [2]
Settings | 333.15 K | 353.15 K
x2 = 0 | 1231.12 | 1214.39
x2 = 0.01 | 1227.27 | 1210.53
x2 = 0.015 | 1225.35 | 1208.6
x2 = 0.02 | 1223.42 | 1206.67
x2 = 0.03 | 1219.57 | 1202.81
x2 = 0.1 | 1192.25 | 1175.45
x2 = 0.2 | 1153.84 | 1136.98
x2 = 0.3 | 1115.37 | 1098.46
x2 = 0.4 | 1076.99 | 1060.02
x2 = 0.499 | 1038.59 | 1021.56
x2 = 0.599 | 1000.24 | 983.157
x2 = 0.699 | 961.436 | 944.296
x2 = 0.801 | 922.401 | 905.202
x2 = 0.899 | 884.731 | 867.477

Cc1ccccc1 [toluene]
[1]
Settings | mass density, 333.15 K [kg/m3] | mass density, 353.15 K [kg/m3] | vapor or sublimation pressure, 333.15 K [kPa] | vapor or sublimation pressure, 353.15 K [kPa]
Gas | 0.6829 | 1.3863 | – | –
Liquid | 830.467 | 810.89 | 18.62 | 38.4

Cc1ccccc1 [toluene] + Cc1ccccc1C
[2], x1 = 1
Settings | mass density [kg/m3]
333.15 K | 830.467
353.15 K | 810.89
